Measured values as given in US8809352B2, “Sulfonamides as inhibitors of Bcl-2 family proteins for the treatments of cancer” (Novartis AG, priority 2009, dated 2014).

target: BCL2 (Homo sapiens, UniProt P10415); test: Biacore SPR solution inhibition assay of BCL-2 binding to peptide derivatized sensor surfaces; settings: SPR competition; 56 nM BCL2 pre-equilibrated with compound one hour; biotinylated BAK, BAD and NOXA peptide surfaces; 25° C.
Procedure, shortened: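 Solution-competition SPR at 25 °C in HEPES pH 7.4 buffer with 1.25 mM DTT and 3% DMSO: compounds (6-point threefold series, 16 μM to 0.004 nM) pre-equilibrated 1 h with 56 nM BCL2, then injected over captured biotinylated BAK, BAD and NOXA peptide surfaces. Binding levels relative to BCL2-only controls gave % inhibition.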

Sequence of BCL2 (P10415 whole entry): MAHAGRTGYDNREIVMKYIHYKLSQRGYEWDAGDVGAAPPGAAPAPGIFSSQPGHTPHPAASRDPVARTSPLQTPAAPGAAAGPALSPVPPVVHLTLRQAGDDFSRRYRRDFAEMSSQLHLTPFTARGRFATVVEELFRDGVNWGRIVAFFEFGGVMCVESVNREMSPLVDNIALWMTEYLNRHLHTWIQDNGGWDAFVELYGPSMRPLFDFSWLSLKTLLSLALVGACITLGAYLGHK

| Compound | IC50 [nM] |
| --- | --- |
| [2H]C1(N2CCc3c(ncnc3NS(=O)(=O)c3ccc(N[C@H](CCN(C)C(C)C)CSc4ccccc4)c(S(=O)(=O)C(F)(F)F)c3)C2)CCN(CC2=C(c3ccc(Cl)cc3)CC(C)(C)CC2)CC1 [Example 78, N-(7-(1-[2-(4-Chloro-phenyl)-4,4-dimethyl-cyclohex-1-enylmethyl]-4-deutero-piperidin-4-yl)-5,6,7,8-tetrahydro-pyrido[3,4-d]pyrimidin-4-yl)-4-[(R)-3-(isopropyl-methyl-amino)-1-phenylsulfanylmethyl-propylamino]-3-trifluoromethanesulfonyl-benzenesulfonamide] | 41 |
| O=S(=O)(Nc1nc(C(F)(F)F)nc2c1CCN(C1CCN(Cc3ccccc3-c3ccc(Cl)cc3)CC1)C2)c1ccc(N[C@H](CCN2CCOCC2)CSc2ccccc2)c(S(=O)(=O)C(F)(F)F)c1 [Example 68, (R)-N-(7-(1-((4′-chlorobiphenyl-2-yl)methyl)piperidin-4-yl)-2-(trifluoromethyl)-5,6,7,8-tetrahydropyrido[3,4-d]pyrimidin-4-yl)-4-(4-morpholino-1-(phenylthio)butan-2-ylamino)-3-(trifluoromethylsulfonyl)benzenesulfonamide] | 235 |
| CN(C)CC[C@H](CSc1ccccc1)Nc1ccc(S(=O)(=O)Nc2ncnc3c2CCN(C2CCN(CC4=C(c5ccc(Cl)cc5)CCC(C)(C)C4)CC2)C3)cc1S(=O)(=O)C(F)(F)F [Example 10, (R)-N-(7-(1-((2-(4-chlorophenyl)-5,5-dimethylcyclohex-1-enyl)methyl)piperidin-4-yl)-5,6,7,8-tetrahydropyrido[3,4-d]pyrimidin-4-yl)-4-(4-(dimethylamino)-1-(phenylthio)butan-2-ylamino)-3-(trifluoromethylsulfonyl)benzenesulfonamide] | 31 |
| CN(C)CC[C@H](CSc1cc(Cl)cc(Cl)c1)Nc1ccc(S(=O)(=O)Nc2ncnc3c2CCN(C2CCN(Cc4ccccc4-c4ccc(Cl)cc4)CC2)C3)cc1S(=O)(=O)C(F)(F)F [Example 41, (R)-N-(7-(1-((4′-chlorobiphenyl-2-yl)-methyl)piperidin-4-yl)-5,6,7,8-tetrahydropyrido[3,4-c]pyrimidin-4-yl)-4-(1-(3,5-dichlorophenylthio)-4-(dimethylamino)butan-2-ylamino)-3-(trifluoromethylsulfonyl)benzenesulfonamide] | 259 |
| O=S(=O)(Nc1ncnc2c1CCN(C1CCN(Cc3ccccc3-c3ccc(Cl)cc3)CC1)C2)c1ccc(N[C@H](CCN2CCCCC2)CSc2ccccc2)c(S(=O)(=O)C(F)(F)F)c1 [Example 30, (R)-N-(7(1-((4′-chlorobiphenyl-2-yl)methyl)piperidin-4-yl)-5,6,7,8-tetrahydropyrido[3,4-d]pyrimidin-4-yl)-4-(l-(phenylthio)-4-(piperidin-1-yl)butan-2-ylamino)-3-(trifluoromethylsulfonyl)benzenesulfonamide] | 128 |
| CN(C)CC[C@H](CSc1ccccc1)Nc1ccc(S(=O)(=O)Nc2ncnc3c2CCN(C2CCN(CC4=C(c5ccc(Cl)cc5)CCC(C)(C)C4)CC2)C3)cc1[N+](=O)[O-] [Example 2] | 31 |
| [2H]C1(N2CCc3c(ncnc3NS(=O)(=O)c3ccc(N[C@H](CCN(C)C)CSc4ccccc4)c(S(=O)(=O)C(F)(F)F)c3)C2)CCN(Cc2cc(F)ccc2-c2ccc(Cl)cc2)CC1 [Example 73, (R)-N-(7-(1-((4′-chloro-4-fluorobiphenyl-2-yl)methyl)-4-deuteropiperidin-4-yl)-5,6,7,8-tetrahydropyrido[3,4-d]pyrimidin-4-yl)-4-(4-(dimethylamino)-1-(phenylthio)butan-2-ylamino)-3-(trifluoromethylsulfonyl)benzene sulfonamide] | 26 |
| CC(=O)N(CCSc1ccccc1)c1ccc(S(=O)(=O)Nc2ncnc3c2CCN(C2CCN(Cc4cc(F)ccc4-c4ccc(Cl)cc4)CC2)C3)cc1S(=O)(=O)C(F)(F)F [Example 15] | 757 |
| CCC[C@H](CSc1ccccc1)Nc1ccc(S(=O)(=O)Nc2ncnc3c2CCN(C2CCN(Cc4ccccc4-c4ccc(Cl)cc4)CC2)C3)cc1S(=O)(=O)C(F)(F)F [Example 43, (R)-N-(7-(1-((4′-chlorobiphenyl-2-yl)methyl)piperidin-4-yl)-5,6,7,8-tetrahydropyrido[3,4-d]pyrimidin-4-yl)-4-(1-(phenylthio)pentan-2-ylamino)-3-(trifluoromethylsulfonyl)benzenesulfonamide] | 2420 |
| CN(C)CC[C@H](CSc1ccccc1)Nc1ccc(S(=O)(=O)Nc2nc(C(F)(F)F)nc3c2CCN(C2CCN(CC4=C(c5ccc(Cl)cc5)CCC(C)(C)C4)CC2)C3)cc1S(=O)(=O)C(F)(F)F [Example 70] | 51 |
| CN(C)CC[C@H](COCc1ccccc1)Nc1ccc(S(=O)(=O)Nc2ncnc3c2CCN(C2CCN(Cc4ccccc4-c4ccc(Cl)cc4)CC2)C3)cc1S(=O)(=O)C(F)(F)F [Example 25, 4-((R)-1-Benzyloxymethyl-3-dimethylamino-propylamino)-N-{7-[1-(4′-chloro-biphenyl-2-ylmethyl)-piperidin-4-yl]-5,6,7,8-tetrahydro-pyrido[3,4-d]pyrimidin-4-yl}-3-trifluoromethanesulfonyl-benzenesulfonamide] | 142 |
| CN(C)CC[C@H](CSc1c(Cl)cccc1Cl)Nc1ccc(S(=O)(=O)Nc2ncnc3c2CCN(C2CCN(Cc4ccccc4-c4ccc(Cl)cc4)CC2)C3)cc1S(=O)(=O)C(F)(F)F [Example 38, (R)-N-(7-(1-((4′-chlorobiphenyl-2-yl)methyl)piperidin-4-yl)-5,6,7,8-tetrahydropyrido[3,4-d]pyrimidin-4-yl)-4-(1-(2,6-dichlorophenylthio)-4-(dimethylamino)butan-2-ylamino)-3-(trifluoromethylsulfonyl)benzenesulfonamide] | 41 |
| O=S(=O)(Nc1ncnc2c1CCN(C1CCN(Cc3ccccc3-c3ccc(Cl)cc3)CC1F)C2)c1ccc(N[C@H](CCN2CCOCC2)CSc2ccccc2)c(S(=O)(=O)C(F)(F)F)c1 (stereo partly drawn) [Example 65, N-(7-(1((4′-Chlorobiphenyl-2-yl)methyl)-3-fluoropiperidin-4-yl)-5,6,7,8-tetrahydropyrido[3,4-d]pyrimidin-4-yl)-4-((R)-4-morpholino-1-(phenylthio)butan-2-ylamino)-3-(trifluoromethylsulfonyl)benzenesulfonamide] | 181 |
| CN(C)C(=O)C[C@H](CSc1ccccc1)Nc1ccc(S(=O)(=O)Nc2ncnc3c2CCN(C2CCN(Cc4ccccc4-c4ccc(Cl)cc4)CC2)C3)cc1[N+](=O)[O-] [Example 22, (R)-3-(4-(N-(7-(1-((4′-chlorobiphenyl-2-yl)methyl)piperidin-4-yl)-5,6,7,8-tetrahydropyrido[3,4-d]pyrimidin-4-yl)sulfamoyl)-2-nitrophenylamino)-N,N-dimethyl-4-(phenylthio)butanamide] | 75 |
| [2H]C1(N2CCc3c(ncnc3NS(=O)(=O)c3ccc(N[C@H](CCN4CCOCC4)CSc4ccccc4)c(S(=O)(=O)C(F)(F)F)c3)C2)CCN([C@H](C)c2ccccc2-c2ccc(Cl)cc2)CC1 [Example 86, N-(7-{1-[(R)-1-(4′-Chloro-biphenyl-2-yl)-ethyl]-4-deuteropiperidin-4-yl}-5,6,7,8-tetrahydro-pyrido[3,4-d]pyrimidin-4-yl)-4-((R)-3-morpholin-4-yl-1-phenylsulfanylmethyl-propylamino)-3-trifluoromethanesulfonyl-benzenesulfonamide] | 46 |
| O=S(=O)(Nc1nnc2n1CCN(C1CCN(Cc3ccccc3-c3ccc(Cl)cc3)CC1)CC2)c1ccc(N[C@H](CCN2CCOCC2)CSc2ccccc2)c(S(=O)(=O)C(F)(F)F)c1 [Example 92, N-{6-[1-(4′-Chloro-biphenyl-2-ylmethyl)-piperidin-4-yl]-5,6,7,8-tetrahydro-4H-1,2,3a,6-tetraaza-azulen-3-yl}-4-((R)-3-morpholin-4-yl-1-phenylsulfanylmethyl-propylamino)-3-trifluoromethanesulfonyl-benzenesulfonamide] | 194 |
| CC(c1ccccc1-c1ccc(Cl)cc1)N1CCC(N2CCc3c(ncnc3NS(=O)(=O)c3ccc(N[C@H](CCN(C)C)CSc4ccccc4)c(S(=O)(=O)C(F)(F)F)c3)C2)CC1 (stereo partly drawn) [Example 51, N-(7-(1-(1-(4′-chlorobiphenyl-2-yl)ethyl)piperidin-4-yl)-5,6,7,8-tetrahydropyrido[3,4-d]pyrimidin-4-yl)-4-((R)-4-(dimethylamino)-1-(phenylthio)butan-2-ylamino)-3-(trifluoromethylsulfonyl)benzenesulfonamide] | 35 |
| CC(c1ccccc1-c1ccc(Cl)cc1)N1CCC(N2CCc3c(ncnc3NS(=O)(=O)c3ccc(N[C@H](CCN(C)C)CSc4ccccc4Cl)c(S(=O)(=O)C(F)(F)F)c3)C2)CC1 (stereo partly drawn) [Example 29, N-(7-(1-(1-(4′-chlorobiphenyl-2-yl)ethyl)piperidin-4-yl)-5,6,7,8-tetrahydropyrido[3,4-d]pyrimidin-4-yl)-4-((R)-1-(2-chlorophenylthio)-4-(dimethylamino)butan-2-ylamino)-3-(trifluoromethylsulfonyl)benzenesulfonamide] | 73 |
| CN(C)CC[C@H](CSc1ccccc1)Nc1ccc(S(=O)(=O)Nc2nc(C(F)(F)F)nc3c2CCN(C2CCN(Cc4ccccc4-c4ccc(Cl)cc4)CC2F)C3)cc1S(=O)(=O)C(F)(F)F (stereo partly drawn) [Example 69, N-(7-(1-((4′-chlorobiphenyl-2-yl)methyl)-3-fluoropiperidin-4-yl)-2-(trifluoromethyl)-5,6,7,8-tetrahydropyrido[3,4-d]pyrimidin-4-yl)-4-((R)-4-(dimethylamino)-1-(phenylthio)butan-2-ylamino)-3-(trifluoromethylsulfonyl)benzenesulfonamide] | 47 |
| CC#CCOc1ccccc1CN1CCC(N2CCc3c(ncnc3NS(=O)(=O)c3ccc(N[C@H](CCN(C)C)CSc4ccccc4)c(S(=O)(=O)C(F)(F)F)c3)C2)CC1 [Example 46, (R)-N-(7-(1-(2-(but-2-ynyloxy)benzyl)piperidin-4-yl)-5,6,7,8-tetrahydropyrido[3,4-d]pyrimidin-4-yl)-4-(4-(dimethylamino)-1-(phenylthio)butan-2-ylamino)-3-(trifluoromethylsulfonyl)benzenesulfonamide] | 1770 |
